Measurements reported in PubChem BioAssay (NCI).
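The concentration for 50% growth inhibition is given as GI50. TGI: total growth inhibition.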

What was measured:
Experiment in all cases: NCI-60 cell line screen, 384-well format
[1] = tested on: HCT-15 colon
[2] = tested on: SK-MEL-2 melanoma
[3] = tested on: TK-10 renal
[4] = tested on: UO-31 renal
[5] = tested on: NCI-H522 lung
[6] = tested on: SNB-19 CNS
[7] = tested on: U251 glioblastoma
[8] = tested on: COLO 205 colon
[9] = tested on: HCT-116 colon
[10] = tested on: OVCAR-5 ovarian
[11] = tested on: HOP-62 NSCLC
[12] = tested on: SK-OV-3 ovarian
[13] = tested on: OVCAR-4 ovarian
[14] = tested on: SNB-75 CNS
[15] = tested on: BT-549 breast
[16] = tested on: MDA-MB-468 breast
[17] = tested on: OVCAR-8 ovarian
[18] = tested on: DU-145 prostate
[19] = tested on: NCI-H322M lung
[20] = tested on: SW-620 colon
[21] = tested on: MDA-MB-435 melanoma
[22] = tested on: UACC-62 melanoma
[23] = tested on: IGROV1 ovarian
[24] = tested on: MCF7 breast
[25] = tested on: UACC-257 melanoma
[26] = tested on: NCI-H23 lung
[27] = tested on: T-47D breast
[28] = tested on: A549 NSCLC
[29] = tested on: CAKI-1 renal
[30] = tested on: MDA-MB-231 breast
[31] = tested on: NCI-H460 NSCLC
[32] = tested on: EKVX NSCLC
[33] = tested on: NCI-H226 lung
[34] = tested on: KM12 colon
[35] = tested on: HL-60(TB) leukemia
[36] = tested on: HOP-92 NSCLC
[37] = tested on: MALME-3M melanoma
[38] = tested on: SF-268 CNS
[39] = tested on: SF-295 CNS
[40] = tested on: SN12C renal
[41] = tested on: SK-MEL-5 melanoma
[42] = tested on: HT29 colon
[43] = tested on: MOLT-4 leukemia
[44] = tested on: 786-0 renal
[45] = tested on: SR leukemia
[46] = tested on: M14 melanoma
[47] = tested on: OVCAR-3 ovarian
[48] = tested on: PC-3 prostate
[49] = tested on: SK-MEL-28 melanoma
[50] = tested on: K-562 leukemia
[51] = tested on: ACHN renal
[52] = tested on: A498 renal
[53] = tested on: RXF 393 renal
[54] = tested on: HS 578T breast
[55] = tested on: SF-539 CNS

Q: How did the GI50 [1] turn out when `Cn1cc(-c2ccc3c(c2)ncn3-c2cc(NS(=O)(=O)C3CC3)cc(-c3ccc(F)cc3F)c2)cn1` was run?
A: The GI50 was 4.25 µM.

Q: What about the TGI [1] of the same compound?
A: The TGI was 24 µM.

Q: And the GI50 [2]?
A: The GI50 was 2.78 µM.

Q: What about the TGI [2] of the same compound?
A: The TGI was 7.22 µM.

Q: And the GI50 [3]?
A: Its GI50 is 2.87 µM.

Q: What about the TGI [3] of the same compound?
A: The TGI was 24.4 µM.

Q: And the GI50 [4]?
A: The GI50 was 1.73 µM.

Q: And the TGI [4]?
A: Its TGI is 7.66 µM.

Q: And the GI50 [5]?
A: Its GI50 is 1.8 µM.

Q: What about the TGI [5] of the same compound?
A: Its TGI is 6.87 µM.

Q: What about the GI50 [6] of the same compound?
A: The GI50 was 4.05 µM.

Q: And the TGI [6]?
A: Its TGI is greater than 100 µM.

Q: And the GI50 [7]?
A: Its GI50 is 2.15 µM.

Q: What about the TGI [7] of the same compound?
A: The TGI was 12.3 µM.

Q: And the GI50 [8]?
A: Its GI50 is 11.7 µM.

Q: And the TGI [8]?
A: The TGI was 93.6 µM.

Q: What about the GI50 [9] of the same compound?
A: The GI50 was 2.79 µM.

Q: What about the TGI [9] of the same compound?
A: The TGI was 12.3 µM.

Q: And the GI50 [10]?
A: Its GI50 is 4.31 µM.

Q: And the TGI [10]?
A: The TGI was 79.4 µM.

Q: And the GI50 [11]?
A: Its GI50 is 2.39 µM.

Q: What about the TGI [11] of the same compound?
A: The TGI was 10.8 µM.

Q: What about the GI50 [12] of the same compound?
A: Its GI50 is 2.42 µM.

Q: And the TGI [12]?
A: Its TGI is 10.8 µM.

Q: What about the GI50 [13] of the same compound?
A: The GI50 was 2.26 µM.

Q: What about the TGI [13] of the same compound?
A: Its TGI is 37.6 µM.

Q: What about the GI50 [14] of the same compound?
A: The GI50 was 0.29 µM.

Q: And the TGI [14]?
A: The TGI was 3.53 µM.

Q: What about the GI50 [15] of the same compound?
A: The GI50 was 1.03 µM.

Q: And the TGI [15]?
A: Its TGI is 9.21 µM.

Q: What about the GI50 [16] of the same compound?
A: The GI50 was 1.71 µM.

Q: What about the TGI [16] of the same compound?
A: The TGI was 6.44 µM.

Q: And the GI50 [17]?
A: The GI50 was 4.79 µM.

Q: And the TGI [17]?
A: The TGI was 79.6 µM.

Q: And the GI50 [18]?
A: Its GI50 is 4.9 µM.

Q: What about the TGI [18] of the same compound?
A: The TGI was 40.2 µM.

Q: What about the GI50 [19] of the same compound?
A: The GI50 was 3.3 µM.

Q: And the TGI [19]?
A: Its TGI is 20.7 µM.

Q: What about the GI50 [20] of the same compound?
A: Its GI50 is 18 µM.

Q: And the TGI [20]?
A: The TGI was greater than 100 µM.

Q: And the GI50 [21]?
A: Its GI50 is 4.37 µM.

Q: And the TGI [21]?
A: Its TGI is 72.8 µM.

Q: What about the GI50 [22] of the same compound?
A: Its GI50 is 6.3 µM.

Q: What about the TGI [22] of the same compound?
A: Its TGI is 18.9 µM.

Q: What about the GI50 [23] of the same compound?
A: The GI50 was 2.02 µM.

Q: And the TGI [23]?
A: The TGI was 6.92 µM.

Q: And the GI50 [24]?
A: Its GI50 is 2.07 µM.

Q: And the TGI [24]?
A: Its TGI is 12.8 µM.

Q: What about the GI50 [25] of the same compound?
A: Its GI50 is 3.02 µM.

Q: What about the TGI [25] of the same compound?
A: Its TGI is 10.3 µM.

Q: What about the GI50 [26] of the same compound?
A: The GI50 was 2.51 µM.

Q: And the TGI [26]?
A: The TGI was 14.4 µM.

Q: What about the GI50 [27] of the same compound?
A: The GI50 was 2.63 µM.

Q: And the TGI [27]?
A: The TGI was 13.7 µM.

Q: What about the GI50 [28] of the same compound?
A: Its GI50 is 3.42 µM.

Q: And the TGI [28]?
A: Its TGI is greater than 100 µM.

Q: And the GI50 [29]?
A: Its GI50 is 2.16 µM.

Q: And the TGI [29]?
A: The TGI was greater than 100 µM.

Q: And the GI50 [30]?
A: The GI50 was 3.4 µM.

Q: And the TGI [30]?
A: The TGI was greater than 100 µM.

Q: And the GI50 [31]?
A: Its GI50 is 2.48 µM.

Q: And the TGI [31]?
A: Its TGI is 13.7 µM.

Q: What about the GI50 [32] of the same compound?
A: Its GI50 is 2.82 µM.

Q: And the TGI [32]?
A: Its TGI is 13.5 µM.

Q: And the GI50 [33]?
A: The GI50 was 0.344 µM.

Q: And the TGI [33]?
A: Its TGI is 14.3 µM.

Q: What about the GI50 [34] of the same compound?
A: The GI50 was 3.4 µM.

Q: What about the TGI [34] of the same compound?
A: Its TGI is 13.2 µM.

Q: What about the GI50 [35] of the same compound?
A: Its GI50 is 3.2 µM.

Q: And the TGI [35]?
A: Its TGI is 6.8 µM.

Q: And the GI50 [36]?
A: Its GI50 is 2.03 µM.

Q: And the TGI [36]?
A: The TGI was 12.4 µM.

Q: What about the GI50 [37] of the same compound?
A: The GI50 was 4.55 µM.

Q: And the TGI [37]?
A: Its TGI is 15.2 µM.

Q: What about the GI50 [38] of the same compound?
A: The GI50 was 3.4 µM.

Q: What about the TGI [38] of the same compound?
A: The TGI was 61.3 µM.

Q: And the GI50 [39]?
A: Its GI50 is 1.69 µM.

Q: And the TGI [39]?
A: Its TGI is 4.14 µM.

Q: And the GI50 [40]?
A: The GI50 was 2.51 µM.

Q: And the TGI [40]?
A: The TGI was greater than 100 µM.

Q: And the GI50 [41]?
A: Its GI50 is 3.28 µM.

Q: What about the TGI [41] of the same compound?
A: The TGI was 15.7 µM.

Q: And the GI50 [42]?
A: The GI50 was 3.01 µM.

Q: And the TGI [42]?
A: The TGI was 10.2 µM.

Q: What about the GI50 [43] of the same compound?
A: The GI50 was 1.62 µM.

Q: And the TGI [43]?
A: The TGI was 3.09 µM.

Q: And the GI50 [44]?
A: The GI50 was 1.99 µM.

Q: What about the TGI [44] of the same compound?
A: The TGI was 4.95 µM.

Q: And the GI50 [45]?
A: Its GI50 is 1.89 µM.

Q: What about the TGI [45] of the same compound?
A: Its TGI is 3.7 µM.

Q: What about the GI50 [46] of the same compound?
A: Its GI50 is 4.6 µM.

Q: And the TGI [46]?
A: Its TGI is 47.3 µM.

Q: What about the GI50 [47] of the same compound?
A: The GI50 was 3.15 µM.

Q: And the TGI [47]?
A: The TGI was 11.4 µM.

Q: What about the GI50 [48] of the same compound?
A: The GI50 was 2.92 µM.

Q: What about the TGI [48] of the same compound?
A: The TGI was 9.54 µM.

Q: What about the GI50 [49] of the same compound?
A: Its GI50 is 4.04 µM.

Q: And the TGI [49]?
A: The TGI was 19.5 µM.

Q: And the GI50 [50]?
A: Its GI50 is 1.81 µM.

Q: And the TGI [50]?
A: The TGI was 3.65 µM.

Q: What about the GI50 [51] of the same compound?
A: The GI50 was 2.5 µM.

Q: And the TGI [51]?
A: Its TGI is 13.2 µM.

Q: And the GI50 [52]?
A: The GI50 was 2.36 µM.

Q: What about the TGI [52] of the same compound?
A: The TGI was 6.03 µM.

Q: What about the GI50 [53] of the same compound?
A: Its GI50 is 0.183 µM.

Q: What about the TGI [53] of the same compound?
A: The TGI was 2.06 µM.

Q: And the GI50 [54]?
A: Its GI50 is 0.575 µM.

Q: And the TGI [54]?
A: Its TGI is 2.44 µM.

Q: And the GI50 [55]?
A: The GI50 was 0.305 µM.

Q: What about the TGI [55] of the same compound?
A: Its TGI is 2.05 µM.
